Results published in ChEMBL document CHEMBL5380831, “Azolylpyrimidinediols as Novel Structural Scaffolds of DNA-Groove Binders against Intractable Acinetobacter baumannii” (J Med Chem, 2023).
Converted amounts (≈) assume the structure as drawn.

system: Pseudomonas aeruginosa; assay: Antibacterial activity against Pseudomonas aeruginosa assessed as bacterial growth inhibition incubated for 24 hrs by broth microdilution method; assay type: functional

Structure (SMILES)	MIC
Cc1cn(-c2ccnc(N(CCO)CCO)n2)c(C)n1	924 µM (≈ 256 µg/mL)
Cc1nc2ccccc2n1-c1ccnc(N(CCO)CCO)n1	26 µM (≈ 8.15 µg/mL)
Cc1ncc([N+](=O)[O-])n1-c1nccc(N(CCO)CCO)n1	415 µM (≈ 128 µg/mL)
O=C1c2cccc3c(N4CCN(c5nccc(-n6cncn6)n5)CC4)ccc(c23)C(=O)N1C(CO)CO	512 µM (≈ 256 µg/mL)
O=C(C(Cl)Cl)N1CCN(c2nccc(-n3cncn3)n2)CC1	88 µM (≈ 30.1 µg/mL)
CCN(CC)c1nccc(-n2cncn2)n1	1170 µM (≈ 256 µg/mL)
OCCN(CCO)c1nccc(-n2cnc3ccccc32)n1	214 µM (≈ 64.1 µg/mL)
CC(=O)N1CCN(c2nccc(-n3cncn3)n2)CC1	469 µM (≈ 128 µg/mL)
OCCN(CCO)c1nccc(-n2ccnc2)n1	1030 µM (≈ 256 µg/mL)
O=C(CCl)N1CCN(c2nccc(-n3cncn3)n2)CC1	104 µM (≈ 32 µg/mL)
CCCc1nccn1-c1nccc(N(CCO)CCO)n1	879 µM (≈ 256 µg/mL)

system: Acinetobacter baumannii; assay: Antibacterial activity against Acinetobacter baumannii assessed as bacterial growth inhibition incubated for 24 hrs by broth microdilution method; assay type: functional

Structure (SMILES)	MIC
Cc1cn(-c2ccnc(N(CCO)CCO)n2)c(C)n1	462 µM (≈ 128 µg/mL)
Cc1nc2ccccc2n1-c1ccnc(N(CCO)CCO)n1	204 µM (≈ 63.9 µg/mL)
Cc1ncc([N+](=O)[O-])n1-c1nccc(N(CCO)CCO)n1	415 µM (≈ 128 µg/mL)
O=C1c2cccc3c(N4CCN(c5nccc(-n6cncn6)n5)CC4)ccc(c23)C(=O)N1C(CO)CO	512 µM (≈ 256 µg/mL)
O=C(C(Cl)Cl)N1CCN(c2nccc(-n3cncn3)n2)CC1	705 µM (≈ 241 µg/mL)
CCN(CC)c1nccc(-n2cncn2)n1	1170 µM (≈ 256 µg/mL)
OCCN(CCO)c1nccc(-n2cnc3ccccc32)n1	856 µM (≈ 256 µg/mL)
CC(=O)N1CCN(c2nccc(-n3cncn3)n2)CC1	937 µM (≈ 256 µg/mL)
OCCN(CCO)c1nccc(-n2ccnc2)n1	1030 µM (≈ 256 µg/mL)
O=C(CCl)N1CCN(c2nccc(-n3cncn3)n2)CC1	208 µM (≈ 64 µg/mL)
CCCc1nccn1-c1nccc(N(CCO)CCO)n1	879 µM (≈ 256 µg/mL)

system: Staphylococcus aureus; assay: Antibacterial activity against Staphylococcus aureus assessed as bacterial growth inhibition incubated for 24 hrs by broth microdilution method; assay type: functional

Structure (SMILES)	MIC
Cc1cn(-c2ccnc(N(CCO)CCO)n2)c(C)n1	924 µM (≈ 256 µg/mL)
Cc1nc2ccccc2n1-c1ccnc(N(CCO)CCO)n1	102 µM (≈ 32 µg/mL)
Cc1ncc([N+](=O)[O-])n1-c1nccc(N(CCO)CCO)n1	831 µM (≈ 256 µg/mL)
O=C1c2cccc3c(N4CCN(c5nccc(-n6cncn6)n5)CC4)ccc(c23)C(=O)N1C(CO)CO	512 µM (≈ 256 µg/mL)
O=C(C(Cl)Cl)N1CCN(c2nccc(-n3cncn3)n2)CC1	705 µM (≈ 241 µg/mL)
CCN(CC)c1nccc(-n2cncn2)n1	1170 µM (≈ 256 µg/mL)
OCCN(CCO)c1nccc(-n2cnc3ccccc32)n1	214 µM (≈ 64.1 µg/mL)
CC(=O)N1CCN(c2nccc(-n3cncn3)n2)CC1	937 µM (≈ 256 µg/mL)
OCCN(CCO)c1nccc(-n2ccnc2)n1	1030 µM (≈ 256 µg/mL)
O=C(CCl)N1CCN(c2nccc(-n3cncn3)n2)CC1	417 µM (≈ 128 µg/mL)
CCCc1nccn1-c1nccc(N(CCO)CCO)n1	879 µM (≈ 256 µg/mL)

system: Enterococcus faecalis; assay: Antibacterial activity against Enterococcus faecalis assessed as bacterial growth inhibition incubated for 24 hrs by broth microdilution method; assay type: functional

Structure (SMILES)	MIC
Cc1cn(-c2ccnc(N(CCO)CCO)n2)c(C)n1	924 µM (≈ 256 µg/mL)
Cc1nc2ccccc2n1-c1ccnc(N(CCO)CCO)n1	409 µM (≈ 128 µg/mL)
Cc1ncc([N+](=O)[O-])n1-c1nccc(N(CCO)CCO)n1	831 µM (≈ 256 µg/mL)
O=C1c2cccc3c(N4CCN(c5nccc(-n6cncn6)n5)CC4)ccc(c23)C(=O)N1C(CO)CO	256 µM (≈ 128 µg/mL)
O=C(C(Cl)Cl)N1CCN(c2nccc(-n3cncn3)n2)CC1	705 µM (≈ 241 µg/mL)
CCN(CC)c1nccc(-n2cncn2)n1	587 µM (≈ 128 µg/mL)
OCCN(CCO)c1nccc(-n2cnc3ccccc32)n1	107 µM (≈ 32 µg/mL)
CC(=O)N1CCN(c2nccc(-n3cncn3)n2)CC1	937 µM (≈ 256 µg/mL)
OCCN(CCO)c1nccc(-n2ccnc2)n1	1030 µM (≈ 256 µg/mL)
O=C(CCl)N1CCN(c2nccc(-n3cncn3)n2)CC1	417 µM (≈ 128 µg/mL)
CCCc1nccn1-c1nccc(N(CCO)CCO)n1	879 µM (≈ 256 µg/mL)

system: Staphylococcus aureus; assay: Antibacterial activity against Staphylococcus aureus ATCC 29213 assessed as bacterial growth inhibition incubated for 24 hrs by broth microdilution method; assay type: functional

Structure (SMILES)	MIC
Cc1cn(-c2ccnc(N(CCO)CCO)n2)c(C)n1	924 µM (≈ 256 µg/mL)
Cc1nc2ccccc2n1-c1ccnc(N(CCO)CCO)n1	204 µM (≈ 63.9 µg/mL)
Cc1ncc([N+](=O)[O-])n1-c1nccc(N(CCO)CCO)n1	831 µM (≈ 256 µg/mL)
O=C1c2cccc3c(N4CCN(c5nccc(-n6cncn6)n5)CC4)ccc(c23)C(=O)N1C(CO)CO	512 µM (≈ 256 µg/mL)
O=C(C(Cl)Cl)N1CCN(c2nccc(-n3cncn3)n2)CC1	705 µM (≈ 241 µg/mL)
CCN(CC)c1nccc(-n2cncn2)n1	587 µM (≈ 128 µg/mL)
OCCN(CCO)c1nccc(-n2cnc3ccccc32)n1	856 µM (≈ 256 µg/mL)
CC(=O)N1CCN(c2nccc(-n3cncn3)n2)CC1	937 µM (≈ 256 µg/mL)
OCCN(CCO)c1nccc(-n2ccnc2)n1	1030 µM (≈ 256 µg/mL)
O=C(CCl)N1CCN(c2nccc(-n3cncn3)n2)CC1	104 µM (≈ 32 µg/mL)
CCCc1nccn1-c1nccc(N(CCO)CCO)n1	879 µM (≈ 256 µg/mL)

system: Pseudomonas aeruginosa; assay: Antibacterial activity against Pseudomonas aeruginosa ATCC 27853 assessed as bacterial growth inhibition incubated for 24 hrs by broth microdilution method; assay type: functional

Structure (SMILES)	MIC
Cc1cn(-c2ccnc(N(CCO)CCO)n2)c(C)n1	924 µM (≈ 256 µg/mL)
Cc1nc2ccccc2n1-c1ccnc(N(CCO)CCO)n1	102 µM (≈ 32 µg/mL)
Cc1ncc([N+](=O)[O-])n1-c1nccc(N(CCO)CCO)n1	415 µM (≈ 128 µg/mL)
O=C1c2cccc3c(N4CCN(c5nccc(-n6cncn6)n5)CC4)ccc(c23)C(=O)N1C(CO)CO	512 µM (≈ 256 µg/mL)
O=C(C(Cl)Cl)N1CCN(c2nccc(-n3cncn3)n2)CC1	705 µM (≈ 241 µg/mL)
CCN(CC)c1nccc(-n2cncn2)n1	587 µM (≈ 128 µg/mL)
OCCN(CCO)c1nccc(-n2cnc3ccccc32)n1	107 µM (≈ 32 µg/mL)
CC(=O)N1CCN(c2nccc(-n3cncn3)n2)CC1	937 µM (≈ 256 µg/mL)
OCCN(CCO)c1nccc(-n2ccnc2)n1	1030 µM (≈ 256 µg/mL)
O=C(CCl)N1CCN(c2nccc(-n3cncn3)n2)CC1	208 µM (≈ 64 µg/mL)
CCCc1nccn1-c1nccc(N(CCO)CCO)n1	879 µM (≈ 256 µg/mL)

system: Klebsiella pneumoniae; assay: Antibacterial activity against Klebsiella pneumoniae assessed as bacterial growth inhibition incubated for 24 hrs by broth microdilution method; assay type: functional

Structure (SMILES)	MIC
Cc1cn(-c2ccnc(N(CCO)CCO)n2)c(C)n1	934 µM (≈ 259 µg/mL)
Cc1nc2ccccc2n1-c1ccnc(N(CCO)CCO)n1	204 µM (≈ 63.9 µg/mL)
Cc1ncc([N+](=O)[O-])n1-c1nccc(N(CCO)CCO)n1	415 µM (≈ 128 µg/mL)
O=C1c2cccc3c(N4CCN(c5nccc(-n6cncn6)n5)CC4)ccc(c23)C(=O)N1C(CO)CO	226 µM (≈ 113 µg/mL)
O=C(C(Cl)Cl)N1CCN(c2nccc(-n3cncn3)n2)CC1	353 µM (≈ 121 µg/mL)
CCN(CC)c1nccc(-n2cncn2)n1	1170 µM (≈ 256 µg/mL)
OCCN(CCO)c1nccc(-n2cnc3ccccc32)n1	428 µM (≈ 128 µg/mL)
CC(=O)N1CCN(c2nccc(-n3cncn3)n2)CC1	4 µM (≈ 1.09 µg/mL)
OCCN(CCO)c1nccc(-n2ccnc2)n1	1030 µM (≈ 256 µg/mL)
O=C(CCl)N1CCN(c2nccc(-n3cncn3)n2)CC1	104 µM (≈ 32 µg/mL)
CCCc1nccn1-c1nccc(N(CCO)CCO)n1	879 µM (≈ 256 µg/mL)

system: Escherichia coli; assay: Antibacterial activity against Escherichia coli assessed as bacterial growth inhibition incubated for 24 hrs by broth microdilution method; assay type: functional

Structure (SMILES)	MIC
Cc1cn(-c2ccnc(N(CCO)CCO)n2)c(C)n1	924 µM (≈ 256 µg/mL)
Cc1nc2ccccc2n1-c1ccnc(N(CCO)CCO)n1	51 µM (≈ 16 µg/mL)
Cc1ncc([N+](=O)[O-])n1-c1nccc(N(CCO)CCO)n1	415 µM (≈ 128 µg/mL)
O=C1c2cccc3c(N4CCN(c5nccc(-n6cncn6)n5)CC4)ccc(c23)C(=O)N1C(CO)CO	512 µM (≈ 256 µg/mL)
O=C(C(Cl)Cl)N1CCN(c2nccc(-n3cncn3)n2)CC1	705 µM (≈ 241 µg/mL)
CCN(CC)c1nccc(-n2cncn2)n1	587 µM (≈ 128 µg/mL)
OCCN(CCO)c1nccc(-n2cnc3ccccc32)n1	214 µM (≈ 64.1 µg/mL)
CC(=O)N1CCN(c2nccc(-n3cncn3)n2)CC1	937 µM (≈ 256 µg/mL)
OCCN(CCO)c1nccc(-n2ccnc2)n1	1030 µM (≈ 256 µg/mL)
O=C(CCl)N1CCN(c2nccc(-n3cncn3)n2)CC1	208 µM (≈ 64 µg/mL)
CCCc1nccn1-c1nccc(N(CCO)CCO)n1	879 µM (≈ 256 µg/mL)

system: Escherichia coli; assay: Antibacterial activity against Escherichia coli ATCC 25922 assessed as bacterial growth inhibition incubated for 24 hrs by broth microdilution method; assay type: functional

Structure (SMILES)	MIC
Cc1cn(-c2ccnc(N(CCO)CCO)n2)c(C)n1	924 µM (≈ 256 µg/mL)
Cc1nc2ccccc2n1-c1ccnc(N(CCO)CCO)n1	817 µM (≈ 256 µg/mL)
Cc1ncc([N+](=O)[O-])n1-c1nccc(N(CCO)CCO)n1	1660 µM (≈ 512 µg/mL)
O=C1c2cccc3c(N4CCN(c5nccc(-n6cncn6)n5)CC4)ccc(c23)C(=O)N1C(CO)CO	255 µM (≈ 128 µg/mL)
O=C(C(Cl)Cl)N1CCN(c2nccc(-n3cncn3)n2)CC1	353 µM (≈ 121 µg/mL)
CCN(CC)c1nccc(-n2cncn2)n1	587 µM (≈ 128 µg/mL)
OCCN(CCO)c1nccc(-n2cnc3ccccc32)n1	856 µM (≈ 256 µg/mL)
CC(=O)N1CCN(c2nccc(-n3cncn3)n2)CC1	4 µM (≈ 1.09 µg/mL)
OCCN(CCO)c1nccc(-n2ccnc2)n1	1030 µM (≈ 256 µg/mL)
O=C(CCl)N1CCN(c2nccc(-n3cncn3)n2)CC1	104 µM (≈ 32 µg/mL)
CCCc1nccn1-c1nccc(N(CCO)CCO)n1	879 µM (≈ 256 µg/mL)

system: Staphylococcus aureus; assay: Antibacterial activity against methicillin-resistant Staphylococcus aureus assessed as bacterial growth inhibition incubated for 24 hrs by broth microdilution method; assay type: functional

Structure (SMILES)	MIC
Cc1cn(-c2ccnc(N(CCO)CCO)n2)c(C)n1	924 µM (≈ 256 µg/mL)
Cc1nc2ccccc2n1-c1ccnc(N(CCO)CCO)n1	204 µM (≈ 63.9 µg/mL)
Cc1ncc([N+](=O)[O-])n1-c1nccc(N(CCO)CCO)n1	831 µM (≈ 256 µg/mL)
O=C1c2cccc3c(N4CCN(c5nccc(-n6cncn6)n5)CC4)ccc(c23)C(=O)N1C(CO)CO	512 µM (≈ 256 µg/mL)
O=C(C(Cl)Cl)N1CCN(c2nccc(-n3cncn3)n2)CC1	705 µM (≈ 241 µg/mL)
CCN(CC)c1nccc(-n2cncn2)n1	1170 µM (≈ 256 µg/mL)
OCCN(CCO)c1nccc(-n2cnc3ccccc32)n1	856 µM (≈ 256 µg/mL)
CC(=O)N1CCN(c2nccc(-n3cncn3)n2)CC1	469 µM (≈ 128 µg/mL)
OCCN(CCO)c1nccc(-n2ccnc2)n1	1030 µM (≈ 256 µg/mL)
O=C(CCl)N1CCN(c2nccc(-n3cncn3)n2)CC1	104 µM (≈ 32 µg/mL)
CCCc1nccn1-c1nccc(N(CCO)CCO)n1	879 µM (≈ 256 µg/mL)

system: Staphylococcus aureus; assay: Antibacterial activity against Staphylococcus aureus ATCC 25923 assessed as bacterial growth inhibition incubated for 24 hrs by broth microdilution method; assay type: functional

Structure (SMILES)	MIC
Cc1cn(-c2ccnc(N(CCO)CCO)n2)c(C)n1	924 µM (≈ 256 µg/mL)
Cc1nc2ccccc2n1-c1ccnc(N(CCO)CCO)n1	102 µM (≈ 32 µg/mL)
Cc1ncc([N+](=O)[O-])n1-c1nccc(N(CCO)CCO)n1	831 µM (≈ 256 µg/mL)
O=C1c2cccc3c(N4CCN(c5nccc(-n6cncn6)n5)CC4)ccc(c23)C(=O)N1C(CO)CO	64 µM (≈ 32 µg/mL)
O=C(C(Cl)Cl)N1CCN(c2nccc(-n3cncn3)n2)CC1	705 µM (≈ 241 µg/mL)
CCN(CC)c1nccc(-n2cncn2)n1	587 µM (≈ 128 µg/mL)
OCCN(CCO)c1nccc(-n2cnc3ccccc32)n1	107 µM (≈ 32 µg/mL)
CC(=O)N1CCN(c2nccc(-n3cncn3)n2)CC1	937 µM (≈ 256 µg/mL)
OCCN(CCO)c1nccc(-n2ccnc2)n1	1030 µM (≈ 256 µg/mL)
O=C(CCl)N1CCN(c2nccc(-n3cncn3)n2)CC1	208 µM (≈ 64 µg/mL)
CCCc1nccn1-c1nccc(N(CCO)CCO)n1	879 µM (≈ 256 µg/mL)
